One data set relates to MDA-MB231 cells. The experiment in a line: MTT cytotoxicity assay, MDA-MB231. The following applies: read-out: IC50 Values, MDA-MB231 Cell Line. The format is cell-based, human. The protocol:
(§1) The cytotoxic activities of the synthesized ligands and metal complexes against the breast cancer cell line MDA-MB231, the hepatic cellular (Hep-G2), and normal cell line (HEK-293) were assessed by MTT assay. A cell suspension was diluted by complete medium to a concentration of 5 × 10^4 cell/mL. Using a micropipette, we pipetted 100 μL aliquots of the cell suspension into each well of 96-well plate (≈5000 cells/well). The 96-well plate was incubated at 37 °C for 24 h to allow cell attachment. After 24 h, cells were treated with 100 µL of growth medium containing […] of the newly synthesized compounds in triplicate. Cells were washed with phosphate-buffered saline (PBS), and fresh relevant medium containing 20 μL MTT in PBS (0.5 mg/mL) was added to the test wells. […] The MTT assay technique is based on the reduction of the tetrazolium salt MTT to insoluble purple formazan by metabolically active cells, making their activities quantifiable by spectrophotometry. […] Cell viability was determined by measuring the absorbance of each well at 570 nm (and at a reference wavelength of 630 nm) using an ELISA plate reader. […] IC50 values were calculated using Graph Pad Prism version 6.01, 2012 (GraphPad software, San Diego, CA, USA), by plotting the log concentration versus corresponding viability (%) to generate dose–response curves. […]

Another data set relates to Hep-G2 cells. The experiment in a line: MTT cytotoxicity assay, Hep-G2. Particulars: read-out: IC50 Values, Hep-G2 Cell Line. The format is cell-based, human. On the procedure:
as §1

A further data set deals with HEK-293 cells. The experiment in a line: MTT cytotoxicity assay, normal cell line HEK-293. The format is cell-based. On the procedure: A cell suspension was diluted by complete medium to a concentration of 5 × 10^4 cell/mL. Using a micropipette, we pipetted 100 μL aliquots of the cell suspension into each well of 96-well plate (≈5000 cells/well). The 96-well plate was incubated at 37 °C for 24 h to allow cell attachment. After 24 h, cells were treated with 100 µL of growth medium containing […] of the newly synthesized compounds in triplicate. Cells were washed with phosphate-buffered saline (PBS), and fresh relevant medium containing 20 μL MTT in PBS (0.5 mg/mL) was added to the test wells. The plate was further incubated in a CO2 incubator at 37 °C for 4 h, and then MTT assay analysis was performed. The MTT assay technique is based on the reduction of the tetrazolium salt MTT to insoluble purple formazan by metabolically active cells, making their activities quantifiable by spectrophotometry. Accordingly, the formed formazan crystals were dissolved in 120 μL DMSO for each well. Cell viability was determined by measuring the absorbance of each well at 570 nm (and at a reference wavelength of 630 nm) using an ELISA plate reader.

Our source for the IC50 and melting point values is paper PMC8401699, “Synthesis, DFT Calculations, Antiproliferative, Bactericidal Activity and Molecular Docking of Novel Mixed-Ligand Salen/8-Hydroxyquinoline Metal Complexes” (Molecules, 2021).

Each structure is given as a SMILES string. Where two headings read alike, the source gives them in different places.

In the case of `N.N.[Cl][Pt][Cl]` [Cisplatin, reference compound], the IC50 with MDA-MB231 cells (MDA-MB231 breast carcinoma cells) worked out at 1.87 ± 0.09 µM; in the data set with Hep-G2 cells (Hep-G2 liver carcinoma cells), 1.55 ± 0.06 µM; in the data set on HEK-293 cells (read-out: IC50 Values, HEK-293 Cell Lines), 94.1 ± 0.05 µM.

`Oc1ccccc1C=NCCN=Cc1ccccc1O` [S, 2,2′-{1,2-ethanediylbis[nitrilo(E)methylylidene]}diphenol] came in with a melting point of 127 °C. Also, the IC50 in the data set on MDA-MB231 cells (Homo sapiens, MDA-MB-231, MDA-MB231 breast carcinoma cells) amounted to 27.54 ± 0.08 µM. Further, in the data set on Hep-G2 cells (Homo sapiens, HepG2, Hep-G2 liver carcinoma cells), the IC50 came out at 1.1 ± 0.1 µM. Also, the half-maximal inhibitory concentration (IC50) in the data set on HEK-293 cells (Homo sapiens, HEK293, read-out: IC50 Values, HEK-293 Cell Lines) turned out to be 93.06 ± 0.04 µM.
